Marks after values point to notes of the source that are not given here.
What was measured:
[1] = Plasma pharmacokinetics in beagle dogs; type: in vivo, male beagle dogs; conditions: Dog
Method: A study was conducted by Sai Life Sciences (Hinjewadi, Pune, India) to investigate the plasma pharmacokinetics of the compound of Example 77 in male beagle dogs following a single intravenous or oral administration.
A group of three male beagle dogs were administered orally with an aqueous suspension formulation (having 2% HPMC and 0.5% Tween 80) of the compound of Example 77, at a dose of 1 mg/kg. In addition, a group of three male beagle dogs were administered intravenously with a solution formulation (in 5% v/v DMSO, 7.5% w/v Solutol HS 15 and 87.5% saline (0.9% w/v NaCl)) of the compound of Example 77, at a dose of 0.05 mg/kg. Blood samples (approximately 1.5 mL) were collected from jugular vein such that the samples were obtained at pre-dose, 0.25, 0.5, 1, 2, 4, 6, 8, and 24 hr (p.o.) and pre-dose, 0.08, 0.25, 0.5, 1, 2, 4, 8, 12, 24 and 32 hr (i.v.) post dose. The blood samples were collected from a set of three dogs at each time point in labelled micro centrifuge tube containing K2EDTA as anticoagulant. Plasma samples were separated by centrifugation at 2500 g for 10 min of whole blood and stored below −70° C. until bioanalysis. All samples were processed for analysis by protein precipitation using acetonitrile and analyzed with LC-MS/MS method (LLOQ=0.50 ng/mL). Pharmacokinetic parameters were calculated using the non-compartmental analysis tool of Phoenix WinNonlin® (Version 6.3).

[2] = test system: SCID mice; experiment: (D) Adoptive transfer in mice; type: in vivo, mouse
Method: On Study day 0, female Balb/C mice are terminated and spleens obtained for CD45RB^high cell isolation (Using SCID IBD cell Separation protocol). Approximately 4×10^5 cells/mL CD45RB^high cells are then injected IP (100 μL/mouse) into female SCID animals. On study day 14, mice are weighed and randomized into treatment groups based on body weight. On Day 21, compounds are administered BID, via oral gavage, in a peanut oil vehicle at the dose levels outlined below and a dose volume of 5 mL/kg. Treatment continues until study day 42, at which point the animals are necropsied 4 hours after am administration. The colon length and weight is recorded and used as a secondary endpoint in the study as a measurement of colon oedema. The colon is then divided into six cross-sections, four of which are used for histopathology scoring (primary endpoint) and two are homogenised for cytokine analysis. Data shown is the % inhibition of the induction window between naïve animals and vehicle animals, where higher inhibition implies closer to the non-diseased, naïve, phenotype.

[3] = Hepatic microsomal stability; type: in vitro ADME; conditions: scaled from intrinsic clearance, mean of two experiments
Method: (§1) • Microsomal stability assays were performed with incubations of test compounds at 0.1 μM (n=2, final DMSO concentration 0.25%), and carried out using pooled human, dog and rat hepatic microsomes from Xenotech (Lots 1210153, 0810143 and 1110042, respectively) at 0.25 mg protein/mL in the presence of co-factor, NADPH. The incubations were performed at 37° C. with 100 μL aliquots taken from the incubation, at 0, 2, 5, 10 and 20 minutes and reactions terminated by addition of 100 μL of acetonitrile containing carbamazepine as analytical internal standard. […] Half-life values were calculated from the relationship T1/2(min)=−0.693/λ • where λ was the slope of the Ln concentration vs time curve. • The in vitro intrinsic clearance, CIint (mL/min/kg), was calculated and scaled to hepatic extraction ratios using the following scaling parameters and formulae.
(§2) Formulae CIint(tissue clearance) mL/min/kg=[0.693/t½(min)]×[1/microsomal protein concentration mg/mL]×[mg microsomes/g liver]×[g liver/kg body weight] […] The incubations were performed at 37° C. with 100 μL samples taken from the incubation, at 0, 10, 20, 45 and 90 minutes, and reactions terminated by addition of 100 μL of acetonitrile containing carbamazepine as analytical internal standard. […] Half-life values were calculated from the relationship T1/2(min)=−0.693/λ • where λ was the slope of the Ln concentration vs time curve. • Standard compounds testosterone, midazolam and 4-methylumbelliferone are included in the assay design.

[4] = Cryopreserved hepatocyte stability; type: in vitro ADME; conditions: scaled from intrinsic clearance, mean of two experiments
Method: as §2
CIint(Tissue Clearance) mL/min/kg=[0.693/t½(min)]×[1/hepatocyte concentration (million cells/mL)]×[million cells/g liver]×[g liver/kg body weight] CIint(Hepatic clearance) mL/min/kg=hepatic blood flow×CIint/(hepatic blood flow+CIint) Hepatic extraction ratio (Eh)=CIint(Hepatic clearance) mL/min/kg/hepatic blood flow (mL/min/kg)

[5] = Hepatic microsomal stability; type: in vitro ADME, human
Method: as §1, §2

[6] = male, beagle, plasma, intravenous 0.05 mg/kg

## C#Cc1cc(Nc2nccc(Oc3ccc(NC(=O)Nc4cc(C(C)(C)C)nn4-c4ccc(OC)cc4)c4ccccc34)n2)cc(C(=O)NCCN2CCOCC2)c1 [Example 77, 3-((4-((4-(3-(3-(tert-Butyl)-1-(4-methoxyphenyl)-1H-pyrazol-5-yl)ureido)-naphthalen-1-yl)oxy)pyrimidin-2-yl)amino)-5-ethynyl-N-(2-morpholinoethyl)benzamide]
[1]; 1 mg/kg p.o.
  plasma exposure after oral administration: no plasma exposure at all was observed
[1]; 1 mg/kg p.o., Plasma
  Fpo: 0%
[1]; [6]
  AUC(0-inf): 37 ng·h/mL
  AUC(0-t): 33.6 ng·h/mL
  C0: 283 ng/mL
  Vd: 1.8 L/kg
  clearance: 25.4 mL/min/kg
  half-life: 2.5 h
[2]; adoptive transfer model of colonic inflammation
  ratio of colon weight:length and relative inhibition of cytokine release: significant activity
[2]; adoptive transfer mouse model, 5 mg/kg BID oral
  % inhibition of IL-8 release: 68%
[2]; adoptive transfer mouse model, 5 mg/kg BID oral, P < 0.05 ANOVA to vehicle
  % Inhibition of colon weight:length: 51%*
[3]; dog hepatic microsomes
  Mean hepatic extraction ratio (Eh): 0.94
[3]; rat hepatic microsomes
  Mean hepatic extraction ratio (Eh): 0.82
[4]; dog hepatocytes
  Mean hepatic extraction ratio (Eh): 0.87
[4]; human hepatocytes
  Mean hepatic extraction ratio (Eh): 0.69
[4]; rat hepatocytes
  Mean hepatic extraction ratio (Eh): 0.55
[5]; conclusion from Tables 9a and 9b (hepatic microsomes and hepatocytes)
  hepatic clearance: high hepatic clearance
[5]; human hepatic microsomes, scaled from intrinsic clearance, mean of two experiments
  Mean hepatic extraction ratio (Eh): 0.94
